{"source": "paper PMC7948948", "about": "(The Journal of Biological Chemistry, 2021)", "test_system": "Mtb pheS–FDAS", "type": "cell-based, Mycobacterium tuberculosis"}
{"smiles": "O=C(Nc1cccnc1)N1CCC(Cc2cccc(Oc3ccc(C(F)(F)F)cn3)c2)CC1", "note": "[PF-3845]", "values": [{"measurement": "MIC, pheS–FDAS mutant", "value": 40, "unit": "µM"}]}
